# Patent US4689333A, “2-(2-pyridylmethylthio (sulfinyl)) benzimidazoles” (Takeda Chemical Industries, Ltd., priority 1984, dated 1987)
# Key:
# [1] = Anti-ulcer action: indomethacin-induced gastric antral ulcer in rats; assay type: in vivo, Male Sprague-Dawley rats; conditions: Rattus norvegicus, po, 5 h, p.o., 30 min before indomethacin 30 mg/kg s.c., 6 rats per group, doses 1, 3, 10 and 30 mg/kg, read-out: Anti-ulcer action ID50
# Description: As the models of gastrointestinal ulcers, restraint and water-immersion stress-induced ulcer, indomethacin-induced ulcer and ethanol-induced gastric mucosal lesions have been used. However, as a model mimicking human gastric ulcer, indomethacin-induced gastric antral ulcer was reported in "Gastroenterology" (Satoh et al. 81, p. 719, 1981), which is considered to be of value as an experimental model. Therefore, the following are data of anti-ulcer actions of the object compounds (I) and of some representable known compounds, on the ulcer model in the above-mentioned literature reference.
# Male Sprague-Dawley rats of 7-weeks old were fasted for 24 hours. These animals were administered test compounds into stomach by using a gastric tube. After 30 minutes, indomethacin, 30 mg/kg subcutaneously, was administered. During 30-90 minutes after the administration of indomethacin, these animals had free access to chow pellets (Japan Clea, CE-2). At 5 hours after the administration of indomethacin, 1 ml of 1% Evans blue was injected to the animals via the tail vein, followed by sacrificing these animals with carbon dioxide gas. The stomach was removed together with the lower part of esophagus and the duodenum. The esophagus was clipped, 10 ml of 1% formalin solution was instilled into the stomach from the duodenum, and then the duodenum was clipped. The whole stomach was immersed in 1% formalin solution. About 15 minutes later, the stomachs were opened along the greater curvature. The area of the lesions which occurred in the gastric antral mucosa was measured under a dissecting microscope with a square-grid eye piece (x10). The sum total of the individual lesions in each animal was measured, and the average value per group was calculated. Based on the difference between the average value of each group and that of the control group, the inhibition rate was determined. The test compound and indomethahacin were suspended in a 5% gum arabic solution, respectively and administered in a volume of 2 ml/kg.
# ^(a) Using 6 rats per group, each of the test compounds was
# administered in a dose of 1, 3, 10 and 30 mg/kg to determine ID50.
# [2] = Toxicity, oral administration to mice; assay type: in vivo; conditions: even in a dose of 2000 mg/kg
Compound,ED50 [1],fatal effect on oral administration [2]
Cc1c(OCC(F)(F)C(F)F)ccnc1C[S+]([O-])c1nc2ccccc2[nH]1 (centres unmarked),< 1 mg/kg,–
[O-][S+](Cc1cc(OCC(F)(F)C(F)F)ccn1)c1nc2ccccc2[nH]1 (centres unmarked),1.3 mg/kg,–
[O-][S+](Cc1cc(OCC(F)(F)C(F)(F)F)ccn1)c1nc2ccccc2[nH]1 (centres unmarked),1.3 mg/kg,–
"Cc1c(OCC(F)(F)C(F)(F)F)ccnc1CSc1nc2ccccc2[nH]1 [2-[3-methyl-4-(2,2,3,3,3-pentafluoropropoxy)-pyrid-2-yl]methylthiobenzimidazole]",3.7 mg/kg,–
"Cc1c(OCC(F)(F)C(F)(F)F)ccnc1C[S+]([O-])c1nc2ccccc2[nH]1 (centres unmarked) [2-[3-methyl-4-(2,2,3,3,3-pentafluoropropoxy)pyrid-2-yl]methylsulfinylbenzimidazole]",< 1 mg/kg,no fatal effect
"Cc1c(OCC(F)(F)F)ccnc1C[S+]([O-])c1nc2ccccc2[nH]1 (centres unmarked) [R^1=H, R^2=CH3, R^3=H, R^4=CH2 CF3, n=1, 2-[3methyl-4-(2,2,2-trifluoroethoxy)-pyrid-2-yl]methylsulfinylbenzimidazo]",< 1 mg/kg,–
"[O-][S+](Cc1cc(OCC(F)(F)F)ccn1)c1nc2ccccc2[nH]1 (centres unmarked) [R^1=H, R^2=H, R^3=H, R^4=CH2 CF3, n=1]",2.4 mg/kg,–
